According to article PMC5570900, “Exploiting a novel conformational switch to control innate immunity mediated by complement protein C3a” (Nature Communications, 2017):

Biological target: T1, C3aR (Homo sapiens, UniProt Q16581)
T1 sequence (Q16581 1-482): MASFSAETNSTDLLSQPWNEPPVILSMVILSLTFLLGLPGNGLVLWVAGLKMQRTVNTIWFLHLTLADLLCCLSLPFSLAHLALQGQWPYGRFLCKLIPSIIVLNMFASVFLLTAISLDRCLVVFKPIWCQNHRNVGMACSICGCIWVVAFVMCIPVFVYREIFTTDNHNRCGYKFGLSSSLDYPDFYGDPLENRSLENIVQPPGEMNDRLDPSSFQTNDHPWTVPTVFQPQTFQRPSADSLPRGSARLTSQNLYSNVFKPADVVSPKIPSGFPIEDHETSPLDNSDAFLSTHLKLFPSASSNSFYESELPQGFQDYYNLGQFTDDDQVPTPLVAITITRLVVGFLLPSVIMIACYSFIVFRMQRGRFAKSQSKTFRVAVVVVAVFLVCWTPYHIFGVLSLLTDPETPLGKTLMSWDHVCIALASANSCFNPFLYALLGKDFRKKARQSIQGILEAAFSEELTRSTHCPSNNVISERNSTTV
Experiment: Histamine secretion in human LAD2 mast cells (agonist mode)
Assay type: cell-based
Set-up: Concentration-dependent histamine secretion in human LAD2 mast cells; endogenous in cells; host or cells: LAD2 human mast cells
Settings: compound alone, 30 min, n ≥ 3, ± SEM
Experimental: LAD2 human mast cells (kindly provided by Dr Dean Metcalfe, National Institute of Allergy and Infectious Diseases, National Institute of Health) were cultured in StemPro®-34 Serum Free Media (Invitrogen, Australia) supplemented with StemPro®-34 nutrient, 100 U/mL penicillin, 100 μg/mL streptomycin, 2 mM GlutaMAX, and 100 ng/mL human stem cell factor (SCF). Cells were hemi-depleted weekly and were not allowed to grow beyond a density of 0.5 × 10^6/mL. This cell line was authenticated by expression of tryptase and histamine granules. For the histamine assay, 1 × 10^4 cells per well were seeded in StemPro®-34 SFM in 96-well plates for 30 min before any treatments. For agonist studies, the cells were treated with compounds prepared in media for 30 min. For antagonist studies, the cells were pre-treated with compounds prepared in SFM for 30 min before addition of C3aR agonists for another 30 min. Cells were centrifuged (500 g, 5 min, 4 °C) and cell-free supernatants were collected for measuring histamine. Histamine content was measured using the histamine EIA kit according to the manufacturer’s instructions (Abnova, Taiwan). The readings were recorded on a FLUOstar Optima (BMG LabTechnologies, Offenburg, Germany).

Structure (SMILES): Cc1[nH]c(C(c2ccccc2)c2ccccc2)nc1C(=O)N[C@@H](CCCNC(=N)N)C(=O)O [Compound 3]
- EC50: 0.02 ± 0.01 µM
